Laboratory results published in US20020169101A1, “Treatment of sexual dysfunction” (priority 1999, published 2002).
Read-outs that look alike come from different tables or passages of the source.

Tests used:
[1] = molecular target: T1, human GRP receptor (BB2) (Homo sapiens, UniProt P30550); assay: BB2 binding assay ([125I][Tyr4]bombesin displacement, CHO-K1 membranes)
T1 construct: expressed in transfected cells; membranes prepared from the cells
Experimental: In the following experiments, measurement of BB1 and BB2 binding was as follows. CHO-K1 cells stably expressing cloned human NMB (for (BB1 assay) and GRP receptors (for BB2 assay) were routinely grown in Ham's F12 culture medium supplemented with 10% foetal calf serum and 2 mM glutamine. For binding experiments, cells were harvested by trypsinization, and stored frozen at −70° C. in Ham's F12 culture medium containing 5% DMSO until required. On the day of use, cells were thawed rapidly, diluted with an excess of culture medium, and centrifuged for 5 minutes at 2000 g. Cells were resuspended in 50 mM Tris-HCl assay buffer (pH 7.4 at 21° C., containing 0.02% BSA, 40 μg/mL bacitracin, 2 μg/mL chymostatin, 4 μg/mL leupeptin, and 2 μM phosphoramidon), counted, and polytronned (setting 5, 10 sec) before centrifuging for 10 minutes at 28,000 g. The final pellet was resuspended in assay buffer to a final cell concentration of 1.5×10^5/mL. For binding assays, […] aliquots of membranes were incubated with [^125I][Tyr^4]bombesin (<0.1 nM) in the presence and absence of test compounds (final assay volume 250 μL) for 60 minutes and 90 minutes for NMB and GRP receptors, respectively. Nonspecific binding was defined by 1 μM bombesin. Assays were terminated by rapid filtration under vacuum onto Whatman GF/C filters presoaked in 0.2% PEI for >2 hours, and washed 50 mM Tris-HCl (pH 6.9 at 21° C.; 6×1 mL). Radioactivity bound was determined using a gamma counter.
All competition data was analysed using nonlinear regression utilizing iterative curve-plotting procedures in Prism® (GraphPad Software Inc., San Diego, USA). IC50 values were corrected to Ki values using the Cheng-Prusoff equation (Cheng Y., Prusoff W. H., Biochem. Pharmacol. 22: 3099-3108, 1973). obtained are listed in Table 1.

[2] = molecular target: T2, human NMB receptor (BB1) (Homo sapiens, UniProt P28336); assay: BB1 binding assay ([125I][Tyr4]bombesin displacement, CHO-K1 membranes)
T2 construct: expressed in transfected cells; membranes prepared from the cells
Method in brief: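 Competition against <0.1 nM [125I][Tyr4]bombesin, 60 min for the NMB receptor and 90 min for the GRP receptor, using homogenised membranes of human-receptor-expressing CHO-K1 cells in pH 7.4 Tris buffer. Bound label was filtered and gamma-counted, with 1 μM bombesin as nonspecific. Ki values came from IC50 via Cheng-Prusoff.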

[3] = Table 3, N-acyl derivatives of Intermediate III-7
[4] = second 'TABLE 4', N-terminal urethane derivatives of Intermediate III-7

T1 sequence (P30550 whole entry): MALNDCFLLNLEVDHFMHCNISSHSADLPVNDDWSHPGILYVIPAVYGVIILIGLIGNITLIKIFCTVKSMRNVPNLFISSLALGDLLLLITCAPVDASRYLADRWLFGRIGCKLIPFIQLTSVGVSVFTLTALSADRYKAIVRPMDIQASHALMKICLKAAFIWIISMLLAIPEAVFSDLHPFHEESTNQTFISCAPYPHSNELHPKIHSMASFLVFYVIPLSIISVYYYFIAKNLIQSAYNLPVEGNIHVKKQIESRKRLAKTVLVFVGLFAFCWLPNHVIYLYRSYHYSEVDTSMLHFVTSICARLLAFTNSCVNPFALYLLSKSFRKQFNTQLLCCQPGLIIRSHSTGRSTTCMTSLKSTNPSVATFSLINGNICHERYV
T2 sequence (P28336 whole entry): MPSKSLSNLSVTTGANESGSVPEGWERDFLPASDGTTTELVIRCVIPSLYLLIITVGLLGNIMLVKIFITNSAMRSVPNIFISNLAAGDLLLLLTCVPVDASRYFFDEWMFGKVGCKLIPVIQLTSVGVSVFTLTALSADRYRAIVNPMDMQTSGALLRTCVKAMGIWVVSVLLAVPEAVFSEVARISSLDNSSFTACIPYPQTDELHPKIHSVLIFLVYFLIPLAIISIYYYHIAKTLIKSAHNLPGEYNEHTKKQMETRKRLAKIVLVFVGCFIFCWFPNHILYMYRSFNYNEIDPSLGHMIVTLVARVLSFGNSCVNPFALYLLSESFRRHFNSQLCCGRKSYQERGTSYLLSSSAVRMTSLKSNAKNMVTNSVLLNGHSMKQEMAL

Row | Molecule | IC50 [1, 3] [nM] | IC50 [2, 3] [nM] | further results
1 | C[C@@](Cc1c[nH]c2ccccc12)(NC(=O)c1cccc2cccnc12)C(=O)NCC1(c2ccccn2)CCCCC1 [Example 79, Quinoline-8-carboxylic acid {(S)-2-(1H-indol-3-yl)-1-methyl-1-[(1-pyridin-2-yl-cyclohexylmethyl)-carbamoyl]-ethyl}-amide] | > 10000 | 4480 | 
2 | C[C@@](Cc1c[nH]c2ccccc12)(NC(=O)OCc1ccccc1Cl)C(=O)NCC1(c2ccccn2)CCCCC1 [Example 95, {(S)-2-(1H-Indol-3-yl)-1-methyl-1-[(1-pyridin-2-yl-cyclohexylmethyl)-carbamoyl]-ethyl}-carbamic acid 2-chloro-benzyl ester] |  |  | IC50 [1, 4]: > 10000 nM; IC50 [2, 4]: 624 nM
3 | Cc1cccc(CC(=O)N[C@@](C)(Cc2c[nH]c3ccccc23)C(=O)NCC2(c3ccccn3)CCCCC2)c1 [Example 54, (S)-3-(1H-Indol-3-yl)-2-methyl-N-(1-pyridin-2-yl-cyclohexylmethyl)-2-(2-m-tolyl-ethanoylamino)-propionamide] | > 10000 | 817 | 
4 | (S)-3-(1H-Indol-3-yl)-2-methyl-N-(1-pyridin-2-yl-cyclohexylmethyl)-2-(2-p-tolyl-ethanoylamino)-propionamide [Example 51] | > 10000 | 944 | 
5 | Cc1ccc(Oc2ccccc2S(=O)(=O)N[C@@](C)(Cc2c[nH]c3ccccc23)C(=O)NCC2(c3ccccn3)CCCCC2)cc1 [Example 153, (S)-3-(1H-indol-3-yl)-2-methyl-N-(1-pyridin-2-yl-cyclohexylmethyl)-2-(2-p-tolyloxy-benzenesulfonylamino)-propionamide] |  |  | IC50 [1]: > 10000 nM; IC50 [2]: 90 nM
6 | C[C@@](Cc1c[nH]c2ccccc12)(NC(=O)c1ccncc1)C(=O)NCC1(c2ccccn2)CCCCC1 [Example 58] | > 10000 | 1360 | 
7 | C[C@@](Cc1c[nH]c2ccccc12)(NC(=O)c1ccc2[nH]ccc2c1)C(=O)NCC1(c2ccccn2)CCCCC1 [Example 67, 1H-Indole-5-carboxylic acid {(S)-2-(1H-indol-3-yl)-1-methyl-1-[(1-pyridin-2-yl-cyclohexylmethyl)-carbamoyl]-ethyl}-amide] | > 10000 | 1880 | 
8 | COc1ccccc1C(=O)N[C@@](C)(Cc1c[nH]c2ccccc12)C(=O)NCC1(c2ccccn2)CCCCC1 [Example 46, N—{(S)-2-(1H-Indol-3-yl)-1-methyl-1-[(1-pyridin-2-yl-cyclohexylmethyl)-carbamoyl]-ethyl}-2-methoxy-benzamide] | > 10000 | 2560 | 
9 | Cc1ccc(COC(=O)N[C@@](C)(Cc2c[nH]c3ccccc23)C(=O)NCC2(c3ccccn3)CCCCC2)cc1 [Example 108, {(S)-2-(1H-Indol-3-yl)-1-methyl-1-[(1-pyridin-2-yl-cyclohexylmethyl)-carbamoyl]-ethyl}-carbamic acid 4-methyl-benzyl ester] |  |  | IC50 [1, 4]: > 10000 nM; IC50 [2, 4]: 1080 nM
10 | C[C@@](Cc1c[nH]c2ccccc12)(NC(=O)OCc1ccc([N+](=O)[O-])cc1)C(=O)NCC1(c2ccccn2)CCCCC1 [Example 96, {(S)-2-(1H-Indol-3-yl)-1-methyl-1-[(1-pyridin-2-yl-cyclohexylmethyl)-carbamoyl]-ethyl}-carbamic acid 4-nitro-benzyl ester] |  |  | IC50 [1, 4]: 463 nM; IC50 [2, 4]: 41 nM
11 | COc1cccc(C(=O)N[C@@](C)(Cc2c[nH]c3ccccc23)C(=O)NCC2(c3ccccn3)CCCCC2)c1 [Example 40, N—{(S)-2-(1H-Indol-3-yl)-1-methyl-1-[(1-pyridin-2-yl-cyclohexylmethyl)-carbamoyl]-ethyl}-3-methoxy-benzamide] | > 10000 | 2860 | 
12 | C[C@@](Cc1c[nH]c2ccccc12)(NC(=O)Cc1ccccc1[N+](=O)[O-])C(=O)NCC1(c2ccccn2)CCCCC1 [Example 84, (S)-3-(1H-Indol-3-yl)-2-methyl-2-[2-(2-nitro-phenyl)-ethanoylamino]-N-(1-pyridin-2-yl-cyclohexylmethyl)-propionamide] | > 10000 | 1980 | 
13 | CC(C)(C)c1ccc(COC(=O)N[C@@](C)(Cc2c[nH]c3ccccc23)C(=O)NCC2(c3ccccn3)CCCCC2)cc1 [Example 98, {(S)-2-(1H-Indol-3-yl)-1-methyl-1-[(1-pyridin-2-yl-cyclohexylmethyl)-carbamoyl]-ethyl}-carbamic acid 4-tert-butyl-benzyl ester] |  |  | IC50 [1, 4]: > 10000 nM; IC50 [2, 4]: 1990 nM
14 | C[C@@](Cc1c[nH]c2ccccc12)(NC(=O)c1cc2ccccc2s1)C(=O)NCC1(c2ccccn2)CCCCC1 [Example 71, Benzo[b]thiophene-2-carboxylic acid {(S)-2-(1H-indol-3-yl)-1-methyl-1-[(1-pyridin-2-yl-cyclohexylmethyl)-carbamoyl]-ethyl}-amide] | > 10000 | 611 | 
15 | Cc1cccc(C(=O)N[C@@](C)(Cc2c[nH]c3ccccc23)C(=O)NCC2(c3ccccn3)CCCCC2)n1 [Example 76, 6-Methyl-pyridine-2-carboxylic acid {(S)-2-(1H-indol-3-yl)-1-methyl-1-[(1-pyridin-2-yl-cyclohexylmethyl)-carbamoyl]-ethyl}-amide] | > 10000 | 2820 | 
16 | C[C@@](Cc1c[nH]c2ccccc12)(NS(=O)(=O)c1ccc(Cl)cc1)C(=O)NCC1(c2ccccn2)CCCCC1 [Example 116] |  |  | IC50 [1]: 4390 nM; IC50 [2]: 373 nM
17 | C[C@@](Cc1c[nH]c2ccccc12)(NS(=O)(=O)c1ccc(F)cc1)C(=O)NCC1(c2ccccn2)CCCCC1 [Example 122] |  |  | IC50 [1]: 4160 nM; IC50 [2]: 560 nM
18 | C[C@@](Cc1c[nH]c2ccccc12)(NC(=O)OCc1cccc(Oc2ccccc2)c1)C(=O)NCC1(c2ccccn2)CCCCC1 [Example 106, {(S)-2-(1H-Indol-3-yl)-1-methyl-1-[(1-pyridin-2-yl-cyclohexylmethyl)-carbamoyl]-ethyl}-carbamic acid 3-phenoxy-benzyl ester] |  |  | IC50 [1, 4]: > 10000 nM; IC50 [2, 4]: 1350 nM
19 | C[C@@](Cc1c[nH]c2ccccc12)(NC(=O)c1cccc2[nH]ccc12)C(=O)NCC1(c2ccccn2)CCCCC1 [Example 68, 1H-Indole-4-carboxylic acid {(S)-2-(1H-indol-3-yl)-1-methyl-1-[(1-pyridin-2-yl-cyclohexylmethyl)-carbamoyl]-ethyl}-amide] | > 10000 | 4500 | 
20 | C[C@@](Cc1c[nH]c2ccccc12)(NS(=O)(=O)c1cccc2ccccc12)C(=O)NCC1(c2ccccn2)CCCCC1 [Example 115, (S)-3-(1H-indol-3-yl)-2-methyl-2-(naphthalene-1-sulfonylamino)-N-(1-pyridin-2-yl-cyclohexylmethyl)-propionamide] |  |  | IC50 [1]: 1580 nM; IC50 [2]: 185 nM
21 | C[C@@](Cc1c[nH]c2ccccc12)(NCCc1ccccc1)C(=O)NCC1(c2ccccn2)CCCCC1 [Example 25, (S)-3-(1H-Indol-3-yl)-2-methyl-2-phenylethylamino-N-(1-pyridin-2-yl-cyclohexylmethyl)-propionamide] |  |  | Ki ([1]; Table 1, human GRP receptor binding affinity, Ki from IC50 by Cheng-Prusoff, read-out: GRP Kj): 2620 nM; Ki ([2]; Table 1, human NMB receptor binding affinity, Ki from IC50 by Cheng-Prusoff, read-out: NMB Ki): 616 nM
22 | COc1ccccc1COC(=O)N[C@@](C)(Cc1c[nH]c2ccccc12)C(=O)NCC1(c2ccccn2)CCCCC1 [Example 100, {(S)-2-(1H-Indol-3-yl)-1-methyl-1-[(1-pyridin-2-yl-cyclohexylmethyl)-carbamoyl]-ethyl}-carbamic acid 2-methoxy-benzyl ester] |  |  | IC50 [1, 4]: > 10000 nM; IC50 [2, 4]: 818 nM
23 | C[C@@](Cc1c[nH]c2ccccc12)(NC(=O)Cc1ccccc1F)C(=O)NCC1(c2ccccn2)CCCCC1 [Example 55, (S)-2-[2-(2-Fluoro-phenyl)-ethanoylamino]-3-(1H-indol-3-yl)-2-methyl-N-(1-pyridin-2-yl-cyclohexylmethyl)-propionamide] | 1550 | 878 | 
24 | C[C@@](Cc1c[nH]c2ccccc12)(NC(=O)c1ncoc1-c1ccccc1)C(=O)NCC1(c2ccccn2)CCCCC1 [Example 80, 5-Phenyl-oxazole-4-carboxylic acid {(S)-2-(1H-indol-3-yl)-1-methyl-1-[(1-pyridin-2-yl-cyclohexylmethyl)-carbamoyl]-ethyl}-amide] | > 10000 | 2660 | 
25 | C[C@@](Cc1c[nH]c2ccccc12)(NC(=O)c1ccccc1Cl)C(=O)NCC1(c2ccccn2)CCCCC1 [Example 44, 2-Chloro-N—{(S)-2-(1H-indol-3-yl)-1-methyl-1-[(1-pyridin-2-yl-cyclohexyl-methyl)-carbamoyl]-ethyl}-benzamide] | > 10000 | 3230 | 
